The results in this text go back to patent US11236084B2, “Substituted azaindoline derivatives as NIK inhibitors” (Janssen Pharmaceutica NV, priority 2017, dated 2022).

For this experiment, the target named is recombinant human NF-kappaB-inducing kinase (NIK/MAP3K14) (Homo sapiens, UniProt Q99558). Description: Biological Assay B: inhibition of auto-phosphorylation of recombinant human NIK/MAP3K14 (AlphaScreen), performed at 2 locations. It counts as biochemical. As to conditions: averaged values. Here is the method: Inhibition of Auto-Phosphorylation of Recombinant Human NF-kappaB-Inducing Kinase (NIK/MAP3K14) Activity (AlphaScreen®)
Chain of recombinant human NF-kappaB-inducing kinase (NIK/MAP3K14) (Q99558 whole entry): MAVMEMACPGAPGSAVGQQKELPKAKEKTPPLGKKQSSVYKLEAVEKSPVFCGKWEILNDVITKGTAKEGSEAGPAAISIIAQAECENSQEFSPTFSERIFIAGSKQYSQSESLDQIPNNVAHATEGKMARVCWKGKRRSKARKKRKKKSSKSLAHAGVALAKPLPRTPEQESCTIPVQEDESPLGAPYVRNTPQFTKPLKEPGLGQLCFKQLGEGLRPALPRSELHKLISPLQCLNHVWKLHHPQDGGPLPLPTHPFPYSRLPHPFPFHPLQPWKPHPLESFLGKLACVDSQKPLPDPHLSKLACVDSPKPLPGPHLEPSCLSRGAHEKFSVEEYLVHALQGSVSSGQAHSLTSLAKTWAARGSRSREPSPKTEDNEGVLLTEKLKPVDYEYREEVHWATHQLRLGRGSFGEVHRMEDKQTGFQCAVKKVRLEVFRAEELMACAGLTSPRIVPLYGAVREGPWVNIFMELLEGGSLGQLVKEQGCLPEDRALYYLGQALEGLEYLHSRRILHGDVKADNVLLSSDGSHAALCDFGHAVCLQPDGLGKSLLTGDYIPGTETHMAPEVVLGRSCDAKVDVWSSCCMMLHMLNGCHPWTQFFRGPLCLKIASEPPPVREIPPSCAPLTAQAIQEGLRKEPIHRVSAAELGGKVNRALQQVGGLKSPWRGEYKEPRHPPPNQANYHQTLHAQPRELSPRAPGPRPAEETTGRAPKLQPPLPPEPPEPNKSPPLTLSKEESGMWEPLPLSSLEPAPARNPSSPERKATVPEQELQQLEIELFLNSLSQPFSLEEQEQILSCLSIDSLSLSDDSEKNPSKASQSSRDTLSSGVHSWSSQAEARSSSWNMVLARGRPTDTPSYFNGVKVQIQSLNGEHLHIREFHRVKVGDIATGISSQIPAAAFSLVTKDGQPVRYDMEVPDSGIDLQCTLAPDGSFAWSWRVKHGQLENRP
NIK/MAP3K14 auto-phosphorylation activity was measured using the AlphaScreen® (αscreen) format (Perkin Elmer). All compounds tested were dissolved in dimethyl sulfoxide (DMSO) and further dilutions were made in assay buffer. Final DMSO concentration was 1% (v/v) in assays. Assay buffer was 50 mM Tris pH 7.5 containing 1 mM EGTA (ethylene glycol tetraacetic acid), 1 mM DTT (dithiothreitol), 0.1 mM Na3VO4, 5 mM MgCl2, 0.01% Tween® 20. Assays were carried out in 384 well Alphaplates (Perkin Elmer). Incubations consisted of compound, 25 microM Adenosine-5′-triphosphate (ATP), and 0.2 nM NIK/MAP3K14. Incubations were initiated by addition of GST-tagged NIK/MAP3K14 enzyme, carried out for 1 h at 25° C. and terminated by addition of stop buffer containing anti-phospho-IKK Ser176/180 antibody. Protein A Acceptor and Glutathione-Donor beads were added before reading using an EnVision® Multilabel Plate Reader (Perkin Elmer). Signal obtained in the wells containing blank samples was subtracted from all other wells and IC50's were determined by fitting a sigmoidal curve to % inhibition of control versus Log10 compound concentration.
Assay B was performed at 2 different locations.
Data for the compounds of the invention in the above assays are provided in Table A (the values in Table are averaged values over all measurements on all batches of a compound; values as IC50 (nM)). (‘n.c.’ means not calculated: ‘Co.’ means compound)
(In Alpha technology, singlet oxygen from a donor bead excites a nearby acceptor bead.)

[1] abbreviates: location 1, AlphaScreen auto-phosphorylation, read-out: Assay B location 1 IC50.
Where [2] appears, read: location 2, AlphaScreen auto-phosphorylation, read-out: Assay B location 2 IC50.
The mark [3] stands for this setting: location 1, NIK auto-phosphorylation, AlphaScreen, read-out: Assay B location 1 IC50.

Where two headings read alike, the source gives them in different places. Bounds are passed on as bounds.

What is called IC50 is the midpoint of a concentration-inhibition curve. Turning to `Cc1cc(N2CCOCC2)c(Cl)cc1Nc1nccc(-c2cnc3c(c2)C(C)(CO)CN3)n1` (single isomer, unassigned) [Compound 258], the IC50 was found to be 91.2 nM under setting [1] and 25.7 nM under setting [2]. In the same order, the values of `COc1cc(C2CCN(C)CC2)c(Cl)cc1Nc1nccc(-c2cnc3c(c2)C(C)(CO)CN3)n1` (centres unmarked) [Compound 317] are 1.6 nM and 1.7 nM. Regarding `COc1cc(-n2cccn2)ccc1Nc1nccc(-c2cnc3c(c2)C(C)(CO)CN3)n1` (centres unmarked) [Compound 191], the IC50 under setting [2] is approximately 27 nM. The same measure, in the same setting: the result for `COc1cc(CCO)ccc1Nc1nccc(-c2cnc3c(c2)C(C)(CO)CN3)n1` (centres unmarked) [Compound 185] reads 3.8 nM; that for `COc1cc(N2CC(O)C2)c(Cl)cc1Nc1nccc(-c2cnc3c(c2)C(C)(CO)CN3)n1` (centres unmarked) [Compound 302], 1.7 nM. `COCCOc1cc(N2CCOCC2)c(F)cc1Nc1nccc(-c2cnc3c(c2)C(C)(CO)CN3)n1` (centres unmarked) [Compound 368]: the IC50 reads like this: under setting [1], 191 nM; under setting [2], 112 nM. In the same order, the values of `COc1cccc(F)c1Nc1nccc(-c2cnc3c(c2)C(C)(CO)CN3)n1` (centres unmarked) [Compound 250] are 912 nM and 1230 nM.

With `COc1ccc(C#N)cc1Nc1nccc(-c2cnc3c(c2)C(C)(CO)CN3)n1` (single isomer, unassigned) [Compound 249], under setting [2], the IC50 amounted to 17.8 nM. On the same count and under the same terms, the result for `COc1ccc(NC(C)=O)cc1Nc1nccc(-c2cnc3c(c2)C(C)(CO)CN3)n1` (centres unmarked) [Compound 221] reads 10.5 nM. Turning to `CCN1CCN(c2cc(OC)c(Nc3nccc(-c4cnc5c(c4)C(C)(CO)CN5)n3)cc2F)CC1` (centres unmarked) [Compound 275], the IC50 runs as follows: under setting [1], 4 nM; under setting [2], 2.6 nM. Turning to `COc1cccc(Nc2nccc(-c3cnc4c(c3)C(C)(CO)CN4)n2)c1C` (centres unmarked) [Compound 214], the IC50 under setting [2] turned out to be 12 nM. On the same count and under the same terms, the result for `CCN1CCN(C(=O)c2cc(OC)c(Nc3nccc(-c4cnc5c(c4)C(C)(CO)CN5)n3)cc2Cl)CC1` (centres unmarked) [Compound 328] reads 1.5 nM. With `COc1cc(C(=O)NC2CCOCC2)ccc1Nc1ncc(F)c(-c2cnc3c(c2)C(C)(CO)CN3)n1` (single isomer, unassigned) [Compound 352], the IC50 under setting [3] stood at 33.9 nM. As for `COc1ccc(N2CCN(C)CC2)cc1Nc1nccc(-c2cnc3c(c2)C(C)(CO)CN3)n1` (centres unmarked) [Compound 238], the IC50 reads like this: under setting [1], approximately 6610 nM; under setting [2], more than 10000 nM. In the same order, the values of `COc1cc(N2CCC(OC)C2)c(Cl)cc1Nc1nccc(-c2cnc3c(c2)C(C)(CO)CN3)n1` (centres unmarked) [Compound 285] are 7.8 nM and 1.8 nM. With `COc1ccc(Cl)c(Nc2nccc(-c3cnc4c(c3)C(C)(CO)CN4)n2)c1` (centres unmarked) [Compound 222], the IC50 under setting [2] amounted to 2.6 nM. `CN(C)CCOc1cc(N2CCOCC2)c(F)cc1Nc1nccc(-c2cnc3c(c2)C(C)(CO)CN3)n1` (single isomer, unassigned) [Compound 297]: the IC50 is, setting by setting: under setting [1], 708 nM; under setting [2], 309 nM. `CCC1(CC#N)CNc2ncc(-c3ccnc(Nc4ccc(C(=O)NC5CCOCC5)cc4OC)n3)cc21` (centres unmarked) [Compound 154]: the concentration for half-maximal inhibition (IC50) under setting [2] stood at 19.1 nM. Turning to `COc1cc(N2CCC(OC)CC2)ccc1Nc1nccc(-c2cnc3c(c2)C(C)(CO)CN3)n1` (centres unmarked) [Compound 213], the IC50 under setting [2] is 13.8 nM.

As for `CN(C)CCOc1cc(N2CCOCC2)c(Cl)cc1Nc1nccc(-c2cnc3c(c2)C(C)(CO)CN3)n1` (single isomer, unassigned) [Compound 274], the IC50 is 2690 nM under setting [1] and 1450 nM under setting [2]. In the same order, the values of `CN(C)CCOc1cc(N2CCOCC2)c(F)cc1Nc1nccc(-c2cnc3c(c2)C(C)(CO)CN3)n1` (single isomer, unassigned) [Compound 286] are 7240 nM and 3390 nM.

Turning to `Cc1cc(N2CCOCC2)c(C#N)cc1Nc1nccc(-c2cnc3c(c2)C(C)(CO)CN3)n1` (centres unmarked) [Compound 363], the IC50 under setting [1] amounted to 17.8 nM and the IC50 under setting [2] worked out at 10.7 nM. In the same order, the values of `COc1cc(C(=O)N2CCC(OC)CC2)c(Cl)cc1Nc1nccc(-c2cnc3c(c2)C(C)(CO)CN3)n1` (centres unmarked) [Compound 296] are 5.3 nM and 1.2 nM. For `COc1cc(CN(C)C)ccc1Nc1nccc(-c2cnc3c(c2)C(C)(CO)CN3)n1` (centres unmarked) [Compound 186], the IC50 under setting [2] turned out to be 40.7 nM. The same measure, in the same setting: the result for `Cc1c(C#N)cccc1Nc1nccc(-c2cnc3c(c2)C(C)(CO)CN3)n1` (centres unmarked) [Compound 223] reads 63.1 nM.

In the case of `Cc1cc(N2CCOCC2)c(F)cc1Nc1nccc(-c2cnc3c(c2)C(C)(CO)CN3)n1` (single isomer, unassigned) [Compound 255], the IC50 stood at 10.2 nM under setting [1] and 7.2 nM under setting [2]. In the same order, the values of `COc1cc(N2CCN(C)CC2)c(F)cc1Nc1nccc(-c2cnc3c(c2)C(C)(CO)CN3)n1` (centres unmarked) [Compound 271] are 10.2 nM and 2.6 nM. In the case of `COc1cc(OCCN(C)C)c(Cl)cc1Nc1nccc(-c2cnc3c(c2)C(C)(CO)CN3)n1` (centres unmarked) [Compound 314], the IC50 was 4.1 nM under setting [1] and 3.1 nM under setting [2]. In the same order, the values of `COc1cc(OC2CCN(C)CC2)c(F)cc1Nc1nccc(-c2cnc3c(c2)C(C)(CO)CN3)n1` (centres unmarked) [Compound 283] are 5.3 nM and 2.8 nM.

Take `COc1cc(C(=O)N2CCC(OC)CC2)c(Cl)cc1Nc1nccc(-c2cnc3c(c2)C(C)(C)CN3)n1` [Compound 9]: the half-inhibitory concentration (IC50) stood at 5.3 nM under setting [1] and 1.8 nM under setting [2].

With `COc1ccc(C)c(Nc2nccc(-c3cnc4c(c3)C(C)(CO)CN4)n2)c1` (centres unmarked) [Compound 220], under setting [2], the IC50 came out at 2.5 nM. The same measure, in the same setting: for `Cc1ccccc1Nc1nccc(-c2cnc3c(c2)C(C)(CO)CN3)n1` (centres unmarked) [Compound 179] the value was 22.4 nM. `Cc1cc(N2CCOCC2)c(F)cc1Nc1nccc(-c2cnc3c(c2)C(C)(CO)CN3)n1` (single isomer, unassigned) [Compound 256]: the IC50 is, setting by setting: under setting [1], 155 nM; under setting [2], 155 nM. As to `Cc1cccc(Nc2nccc(-c3cnc4c(c3)C(C)(CO)CN4)n2)c1C` (centres unmarked) [Compound 212], under setting [2], the IC50 came out at 22.4 nM. Still for that read-out and setting: the result for `CCc1ccc(OC)c(Nc2nccc(-c3cnc4c(c3)C(C)(CO)CN4)n2)c1` (centres unmarked) [Compound 206] reads 38 nM. Regarding `COc1cc(N2CC3(CCOCC3)C2)c(F)cc1Nc1nccc(-c2cnc3c(c2)C(C)(CO)CN3)n1` (centres unmarked) [Compound 7], the IC50 by setting is: under setting [1], 15.5 nM; under setting [2], 2.6 nM. In the same order, the values of `CC1(CO)CNc2ncc(-c3ccnc(Nc4cccc(Cl)c4Cl)n3)cc21` (centres unmarked) [Compound 227] are 72.4 nM and 41.7 nM. In the same order, the values of `COc1cc(N2CCC(N(C)C)C2)c(Cl)cc1Nc1nccc(-c2cnc3c(c2)C(C)(CO)CN3)n1` (centres unmarked) [Compound 278] are 4.7 nM and 1 nM. In the same order, the values of `COc1cc(N2CCC2)c(Cl)cc1Nc1nccc(-c2cnc3c(c2)C(C)(CO)CN3)n1` (centres unmarked) [Compound 294] are 12 nM and 2.3 nM. Consider `COCCOc1cc(N2CCOCC2)c(C#N)cc1Nc1nccc(-c2cnc3c(c2)C(C)(CO)CN3)n1` (centres unmarked) [Compound 369], for which the IC50 turned out to be 123 nM under setting [1] and 64.6 nM under setting [2]. In the same order, the values of `CC1(CO)CNc2ncc(-c3ccnc(Nc4cc(Cl)c(N5CCOCC5)cc4Cl)n3)cc21` (centres unmarked) [Compound 362] are 6.9 nM and 3.6 nM.

With `COc1cc(N2CCC(F)(F)CC2)ccc1Nc1nccc(-c2cnc3c(c2)C(C)(CO)CN3)n1` (centres unmarked) [Compound 217], under setting [2], the IC50 worked out at 27.5 nM. On to `COc1cc(N2CCOCC2)c(F)cc1Nc1nccc(-c2cnc3c(c2)C(C)(CO)CN3)n1` (single isomer, unassigned) [Compound 254], for which the IC50 turned out to be 6.5 nM under setting [1] and 3.6 nM under setting [2]. In the same order, the values of `COc1cc(N2CCN(C)CC2)c(Cl)cc1Nc1nccc(-c2cnc3c(c2)C(C)(CO)CN3)n1` (single isomer, unassigned) [Compound 303] are 13.8 nM and 4.8 nM. As to `COc1cc(C(=O)N2CCCCC2)ccc1Nc1nccc(-c2cnc3c(c2)C(C)(CO)CN3)n1` (single isomer, unassigned) [Compound 156], the IC50 under setting [2] came out at 3.2 nM. Take `CCN1CCC(Oc2ccc(Nc3nccc(-c4cnc5c(c4)C(C)(CO)CN5)n3)c(OC)c2)C1` (centres unmarked) [Compound 233]: the half-inhibitory concentration (IC50) worked out at 32.4 nM under setting [1] and 33.1 nM under setting [2]. For `COc1cc(N2CC3(CCOCC3)C2)c(Cl)cc1Nc1ncc(F)c(-c2cnc3c(c2)C(C)(CO)CN3)n1` (centres unmarked) [Compound 346], the IC50 under setting [3] amounted to 7.4 nM. For `COc1cc(N2CCOCC2)c(Cl)cc1Nc1nccc(-c2cnc3c(c2)C(C)(CO)CN3)n1` (centres unmarked) [Compound 6], the IC50 reads like this: under setting [1], 4.7 nM; under setting [2], 4 nM. In the same order, the values of `COc1ccc(-c2cnn(C)c2)cc1Nc1nccc(-c2cnc3c(c2)C(C)(CO)CN3)n1` (centres unmarked) [Compound 239] are 389 nM and 355 nM. In the same order, the values of `COCCOc1cc(N2CCOCC2)c(Cl)cc1Nc1nccc(-c2cnc3c(c2)C(C)(CO)CN3)n1` (centres unmarked) [Compound 367] are 87.1 nM and 21.9 nM.
